This passage reports IC50 results from US10829501B2 (BRISTOL-MYERS SQUIBB COMPANY, priority 2016, dated 2020).

Structures can show the parent of a compound that is named as a salt. Some results are limits rather than exact numbers.

Sequence of ROCK2 (O75116 whole entry, species assumed): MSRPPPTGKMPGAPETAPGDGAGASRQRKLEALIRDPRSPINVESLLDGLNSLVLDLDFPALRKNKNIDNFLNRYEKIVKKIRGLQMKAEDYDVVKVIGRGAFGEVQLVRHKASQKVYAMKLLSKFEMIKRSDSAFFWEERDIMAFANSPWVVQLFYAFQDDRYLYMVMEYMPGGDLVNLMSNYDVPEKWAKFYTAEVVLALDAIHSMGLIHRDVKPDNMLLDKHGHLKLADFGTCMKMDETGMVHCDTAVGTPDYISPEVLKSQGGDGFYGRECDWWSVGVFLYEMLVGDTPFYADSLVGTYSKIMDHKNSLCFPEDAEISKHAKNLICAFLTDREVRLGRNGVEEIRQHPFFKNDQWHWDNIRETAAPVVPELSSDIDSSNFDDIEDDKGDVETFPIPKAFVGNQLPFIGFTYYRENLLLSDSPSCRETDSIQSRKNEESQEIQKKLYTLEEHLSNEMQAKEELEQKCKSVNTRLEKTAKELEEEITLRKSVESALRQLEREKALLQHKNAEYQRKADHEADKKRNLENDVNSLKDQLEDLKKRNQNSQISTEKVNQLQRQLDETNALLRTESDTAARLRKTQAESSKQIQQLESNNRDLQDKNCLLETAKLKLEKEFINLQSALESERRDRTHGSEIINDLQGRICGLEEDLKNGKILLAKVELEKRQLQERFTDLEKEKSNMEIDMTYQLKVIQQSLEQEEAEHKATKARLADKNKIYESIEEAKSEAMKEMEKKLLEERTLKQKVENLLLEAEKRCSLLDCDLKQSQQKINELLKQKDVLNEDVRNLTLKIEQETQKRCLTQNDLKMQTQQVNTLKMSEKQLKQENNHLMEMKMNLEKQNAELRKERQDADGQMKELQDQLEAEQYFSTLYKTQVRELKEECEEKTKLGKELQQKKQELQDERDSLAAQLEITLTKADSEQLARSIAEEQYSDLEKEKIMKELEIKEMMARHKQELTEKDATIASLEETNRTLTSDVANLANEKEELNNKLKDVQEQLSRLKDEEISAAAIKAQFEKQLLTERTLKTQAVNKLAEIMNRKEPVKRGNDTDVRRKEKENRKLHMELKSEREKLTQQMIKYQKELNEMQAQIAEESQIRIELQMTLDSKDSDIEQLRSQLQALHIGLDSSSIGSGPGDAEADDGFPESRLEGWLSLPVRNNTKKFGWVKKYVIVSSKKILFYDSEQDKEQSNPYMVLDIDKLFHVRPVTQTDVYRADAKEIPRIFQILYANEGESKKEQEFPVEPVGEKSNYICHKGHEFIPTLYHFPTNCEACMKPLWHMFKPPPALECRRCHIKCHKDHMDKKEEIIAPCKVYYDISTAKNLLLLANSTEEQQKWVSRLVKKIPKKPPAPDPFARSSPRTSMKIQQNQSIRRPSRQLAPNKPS

The first assay has as its target ROCK2 (Homo sapiens, UniProt O75116). Put plainly: ROCK2 kinase inhibition assay (LABCHIP 3000 Reader, FITC peptide substrate).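 Also: rho kinase reaction read by separating phosphorylated from unphosphorylated peptide on chip, with inhibition of kinase activity computed per concentration across a dose-response series.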
Conditions: not given
`CC(C)Cn1cc(-c2cc(C#N)cc(C(=O)N[C@H]3CC4(C3)C[C@H](Oc3ncccc3C(N)=O)C4)c2)cn1` (stereo partly drawn) [Example 187, 2-((aR)-6-(3-cyano-5-(1-isobutyl-1H-pyrazol-4-yl)benzamido)spiro [3.3]heptan-2-yl)oxy)nicotinamide, trifluoroacetate]: the IC50 was under 5 nM. In turn, `CC(C)(O)COc1ccc2c(C(=O)NC3CC4(C3)CC(Oc3cc(-c5ccc(CN6CCOCC6)s5)ccc3C(N)=O)C4)cnn2c1` (stereo not shown) [Example 281, N-(6-(2-carbamoyl-5-(5-(morpholinomethyl)thiophen-2-yl)phenoxy)spiro[3.3]heptan-2-yl)-6-(2-hydroxy-2-methylpropoxy)pyrazolo[1,5-a]pyridine-3-carboxamide] returned an IC50 of 5 to 50 nM. Consider `CN1CCc2nc(-c3cc(C#N)cc(C(=O)N[C@H]4CC5(C4)C[C@H](Oc4ncccc4C(N)=O)C5)c3)sc2C1` (stereo partly drawn) [Example 200, 2-(((aR)-6-(3-cyano-5-(5-methyl-4,5,6,7-tetrahydrothiazolo[5,4-c]pyridin-2-yl)benzamido)spiro[3.3]heptan-2-yl)oxy)nicotinamide, bis-trifluoroacetate], for which the IC50 was 5 to 50 nM. `CC(C)(C)c1cc(C(=O)N[C@H]2CC3(C2)C[C@H](Oc2ncccc2C(N)=O)C3)n(CC(F)F)n1` (stereo partly drawn) [Example 113, 2-((aR)-6-(3-(tert-butyl)-1-(2,2-difluoroethyl)-1H-pyrazole-5-carboxamido)spiro[3.3]heptan-2-yl)oxy) nicotinamide, trifluoroacetate] gave an IC50 of 250 to 2500 nM. The molecule `NC(=O)c1ccccc1O[C@H]1CC2(C[C@H](NC(=O)N3Cc4ccccc4C3)C2)C1` (stereo partly drawn) [Example 41, N-[(aR)-6-(2-carbamoylphenoxy)spiro [3.3]heptan-2-yl]-2,3-dihydro-1H-isoindole-2-carboxamide] returned an IC50 of 50 to 250 nM. Molecule `NC(=O)c1cccnc1O[C@H]1CC2(C[C@H](NC(=O)c3cnn4cc(N5CC(CO)(CO)C5)ccc34)C2)C1` (stereo partly shown) [Example 355] yielded an IC50 of 50 to 250 nM. Same read-out and setting: in the case of `Cc1nc(-c2ccc(C(F)(F)F)cc2)sc1-c1cc(C#N)cc(C(=O)N[C@H]2CC3(C2)C[C@H](Oc2ncccc2C(N)=O)C3)c1` (stereo partly drawn) [Example 188, 2-((aR)-6-(3-cyano-5-(4-methyl-2-(4-(trifluoromethyl)phenyl)thiazol-5-yl)benzamido)spiro[3.3]heptan-2-yl)oxy)nicotinamide, trifluoroacetate] it was 250 to 2500 nM; in that of `[H][C@]1(Oc2ncccc2C(N)=O)C[C@@]2(C[C@H](NC(=O)c3nn(C(C)(C)C#N)c4cc(OCCC(F)(F)F)ccc34)C2)C1` (stereo partly drawn) [Example 411, N-((aR)-6-((3-carbamoylpyridin-2-yl)oxy)spiro[3.3]heptan-2-yl)-1-(2-cyanopropan-2-yl)-6-(3,3,3-trifluoropropoxy)-1H-indazole-3-carboxamide, TFA], 5 to 50 nM; in that of `Cn1cc(-c2ccc3c(C(=O)N[C@H]4CC5(C4)C[C@H](Oc4ncccc4C(N)=O)C5)nnn3c2)cn1` (stereo partly drawn) [Example 367, N-((aR)-6-((3-carbamoylpyridin-2-yl)oxy)spiro[3.3]heptan-2-yl)-6-(1-methyl-1H-pyrazol-4-yl)-[1,2,3]triazolo[1,5-a]pyridine-3-carboxamide], under 5 nM.

As for `NC(=O)c1cccnc1O[C@H]1CC2(C[C@H](NC(=O)c3cnc4cc(N5CC[C@@H](O)C5)ccn34)C2)C1` (stereo partly drawn) [Example 326, N-((aR)-6-((3-carbamoylpyridin-2-yl)oxy)spiro[3.3]heptan-2-yl)-7-((R)-3-hydroxypyrrolidin-1-yl)imidazo[1,2-a]pyridine-3-carboxamide], the IC50 lay in the range of 5 to 50 nM.

With `NC(=O)c1cccnc1O[C@H]1CC2(C[C@H](NC(=O)c3cn4cc(Cl)ccc4n3)C2)C1` (stereo partly drawn) [Example 153, N-((aR)-6-((3-carbamoylpyridin-2-yl)oxy)spiro[3.3]heptan-2-yl)-6-chloroimidazo[1,2-a]pyridine-2-carboxamide, trifluoroacetate], the IC50 was in the range of 250 to 2500 nM. `CC(C)(O)COc1ccc2c(C(=O)NC3CC4(C3)CC(Oc3cc(-c5cnn(C6CCOCC6)c5)ccc3C(N)=O)C4)cnn2c1` (stereo not shown) [Example 278, N-(6-(2-carbamoyl-5-(1-(tetrahydro-2H-pyran-4-yl)-1H-pyrazol-4-yl)phenoxy)spiro[3.3]heptan-2-yl)-6-(2-hydroxy-2-methylpropoxy)pyrazolo[1,5-a]pyridine-3-carboxamide] returned an IC50 of 5 to 50 nM. With `N#Cc1cc(C(=O)N[C@H]2CC3(C2)C[C@H](Oc2ncccc2C(N)=O)C3)cc(-c2c[nH]nc2C(F)(F)F)c1` (stereo partly drawn) [Example 193, 2-(((aR)-6-(3-cyano-5-(3-(trifluoromethyl)-1H-pyrazol-4-yl)benzamido)spiro[3.3]heptan-2-yl)oxy)nicotinamide, trifluoroacetate], the IC50 was in the range of 5 to 50 nM.

On to `C[C@H](O)COc1ccc2c(C(=O)N[C@H]3CC4(C3)C[C@H](Oc3ncccc3C(N)=O)C4)cnn2c1` (stereo partly drawn) [Example 333, N-((aR)-6-((3-carbamoylpyridin-2-yl)oxy)spiro[3.3]heptan-2-yl)-6-((S)-2-hydroxypropoxy)pyrazolo[1,5-a]pyridine-3-carboxamide], for which the IC50 lay in the range of 5 to 50 nM. The same measure, in the same setting: in the case of `NC(=O)c1ccccc1O[C@H]1CC2(C[C@H](NC(=O)c3cnn4cc(OC5CCS(=O)(=O)CC5)ccc34)C2)C1` (stereo partly drawn) [Example 28, N-[(aR)-6-(2-carbamoylphenoxy)spiro [3.3]heptan-2-yl]-6-[(1,1-dioxo-1λ^6-thian-4-yl)oxy]pyrazolo [1,5-a]pyridine-3-carboxamide] it was under 5 nM; in that of `NC(=O)c1cccnc1O[C@H]1CC2(C[C@H](NC(=O)c3cnc4cc(NCC(F)F)ccn34)C2)C1` (stereo partly drawn) [Example 358, N-((aR)-6-((3-carbamoylpyridin-2-yl)oxy)spiro[3.3]heptan-2-yl)-7-((2,2-difluoroethyl)amino)imidazo[1,2-a]pyridine-3-carboxamide], 5 to 50 nM.

`CC(C)(O)COc1ccc2c(C(=O)NC3CC4(C3)CC(Oc3ccccc3C(N)=O)C4)cnn2c1` (stereo not shown) [Example 3, N-(6-(2-carbamoylphenoxy)spiro[3.3]heptan-2-yl)-6-(2-hydroxy-2-methylpropoxy)pyrazolo[1,5-a]pyridine-3-carboxamide]: the IC50 is 5 to 50 nM. For `NC(=O)c1cccnc1O[C@H]1CC2(C[C@H](NC(=O)c3cnc4cc(OC(CF)CF)ccn34)C2)C1` (stereo partly drawn) [Example 332, N-((aR)-6-((3-carbamoylpyridin-2-yl)oxy)spiro[3.3]heptan-2-yl)-7-((1,3-difluoropropan-2-yl)oxy)imidazo[1,2-a]pyridine-3-carboxamide], the IC50 lay in the range of 5 to 50 nM. `CC(C)(O)Cn1nc(C(=O)N[C@H]2CC3(C2)C[C@H](Oc2ncccc2C(N)=O)C3)c2ccccc21` (stereo partly drawn) [Example 102, N-((aR)-6-((3-carbamoylpyridin-2-yl)oxy)spiro[3.3]heptan-2-yl)-1-(2-hydroxy-2-methylpropyl)-1H-indazole-3-carboamide, trifluoroacetate] came in with an IC50 of 5 to 50 nM.

The molecule `[H][C@]1(Oc2ncccc2C(N)=O)C[C@@]2(C[C@H](NC(=O)c3cn4nc(OCC(F)(F)F)ccc4n3)C2)C1` (stereo partly drawn) [Example 61, N-((aR)-6-((3-carbamoylpyridin-2-yl)oxy)spiro[3.3]heptan-2-yl)-6-(2,2,2-trifluoroethoxy)imidazo[1,2-b]pyridazine-2-carboxamide] came in with an IC50 of 50 to 250 nM. Consider `CC(O)c1ccn2c(C(=O)N[C@H]3CC4(C3)C[C@H](Oc3ncccc3C(N)=O)C4)cnc2c1` (stereo partly drawn) [Example 328, N-((aR)-6-((3-carbamoylpyridin-2-yl)oxy)spiro[3.3]heptan-2-yl)-7-(1-hydroxyethyl)imidazo[1,2-a]pyridine-3-carboxamide], for which the IC50 lay within 50 to 250 nM. `CC(C)(O)COc1ccc2c(C(=O)NC3CC4(C3)CC(Oc3cc(N5CC(N)C5)ccc3C(N)=O)C4)cnn2c1` (stereo not shown) [Example 260, N-(6-(5-(3-aminoazetidin-1-yl)-2-carbamoylphenoxy)spiro[3.3]heptan-2-yl)-6-(2-hydroxy-2-methylpropoxy)pyrazolo[1,5-a]pyridine-3-carboxamide, TFA] had an IC50 of 5 to 50 nM.

`NC(=O)c1cccnc1OC1CC2(CC(NC(=O)c3nnc4cc(N5CCOCC5)ccn34)C2)C1` [Example 179, N-((aR)-6-((3-carbamoylpyridin-2-yl)oxy)spiro[3.3]heptan-2-yl)-7-morpholino-[1,2,4] triazolo[4,3-a]pyridine-3-carboxamide] returned an IC50 of 5 to 50 nM. `CC(C)(O)COc1ccc2c(C(=O)NC3CC4(C3)CC(Oc3cc(C5CNC5)ccc3C(N)=O)C4)cnn2c1` (stereo not shown) [Example 226, N-(6-(5-(azetidin-3-yl)-2-carbamoylphenoxy)spiro[3.3]heptan-2-yl)-6-(2-hydroxy-2-methylpropoxy)pyrazolo[1,5-a]pyridine-3-carboxamide]: the IC50 lay in the range of 50 to 250 nM. As to `[H][C@]1(Oc2ncccc2C(N)=O)C[C@@]2(C[C@H](NC(=O)c3cc(Br)cc(OCCC(F)(F)F)c3)C2)C1` (stereo partly shown) [Example 56], the IC50 lay in the range of 5 to 50 nM. Consider `COCCNC(=O)c1cccc(-c2ccc(C(N)=O)c(OC3CC4(CC(NC(=O)c5cnn6cc(OCC(C)(C)O)ccc56)C4)C3)c2)c1` (stereo not shown) [Example 293, 3′-((6-(6-(2-hydroxy-2-methylpropoxy)pyrazolo[1,5-a]pyridine-3-carboxamido)spiro[3.3]heptan-2-yl)oxy)-N3-(2-methoxyethyl)-[1,1′-biphenyl]-3,4′-dicarboxamide], for which the IC50 lay within 5 to 50 nM.

The same assay, now with this note: read-out: ROCK2 Activity (ROCK2 IC50); 5 μM ATP, 1.5 μM peptide substrate, pH 7.5.
Regarding `Cc1c(C(=O)NC2CC3(C2)CC(Oc2ncccc2C(N)=O)C3)cnn1-c1ccc(C#N)cc1` [Example 385, N-[(aR)2-({6-[1-(4-cyanophenyl)-5-methyl-1H-pyrazole-4-amido]spiro[3.3]heplan-2-yl}oxy)pyridine-3-carboxamide1 trifluoroacetic acid salt], the IC50 lay in the range of 5 to 50 nM. On to `Cc1c(-c2cc(C(=O)NC3CC4(C3)CC(Oc3ncccc3C(N)=O)C4)cc(C(F)(F)F)c2)cnn1C` [Example 454, 2-(((aR)-6-(3-(1,5-dimethyl-1H-pyrazol-4-yl)-5-(trifluoromethyl)benzamido)spiro[3.3]heptan-2-yl)oxy)nicotinamide], for which the IC50 was under 5 nM.

Broadly, the IC50 is the midpoint of a concentration-inhibition curve.
